# Measured values from patent US8552052B2, “Use of diindolylmethane-related indoles for the treatment and prevention of respiratory syncytial virus associated conditions” (BioResponse, L.L.C., priority 2004, dated 2013).
# Entries after “also recorded” stand apart in the source; their conditions may differ.
# Key:
# [1] = water and lipid; cited from earlier work
# [2] = test system: RSV Long strain; assay: Pulmonary histopathology in RSV infected BALB/c mice; format: in vivo; details: DIM administered orally or parenterally
# Experimental: (§1) The Following Experimental BALB/c Groups and Treatment Protocol Using DIM were Studied: • 1. RSV infected positive control group, infected with RSV and injected subcutaneously (SC) once daily with DMSO/Phosphate Buffered Saline (PBS) vehicle. • 2. RSV infected, Low dose Parenteral DIM group (15 mg/kg/day), injected SC once daily with DIM suspension • 3. RSV infected, High dose DIM Group (150 mg/kg/day), injected SC once daily with DIM suspension • 4. RSV infected, orally treated DIM group (250 mg/kg/day from absorption enhanced DIM [Example 6.1]), added to powdered feed • 5. Uninfected negative control group, nasally administered vehicle only, and injected subcutaneously (SC) once daily with DMSO/PBS vehicle
# (§2) Mouse treatment, infection and harvest. […]
# (§3) To determine viral titer, the lung was homogenized in DMEM supplemented with 2% FBS (2 ml DMEM per 100 mg tissue) in cold. […] Multiple, 4 μm thick sections were stained with haematoxylin & eosin (H&E) and scored for cellular inflammation under light microscopy by two independent researchers. Inflammatory infiltrates were scored by enumerating the layers of inflammatory cells surrounding the vessels and bronchioles. […] A total of about 20 spaces per lung were counted for each animal. […] The concentration of cysteinyl leukotrienes conjugates in the BALF was determined by an ELISA kit following the manufacturer's protocol (R&D Systems, Minneapolis, Minn.). […]
# [3] = test system: bRSV; assay: Experimental bovine Respiratory Syncytial Virus (bRSV) infection in calves; format: in vivo, Male Jersey calves; details: vs vehicle only treated positive control animals
# [4] = test system: cysteinyl leukotrienes; assay: Cysteinyl leukotrienes ELISA in bronchoalveolar lavage fluid (BALF) of RSV infected BALB/c mice; format: in vivo; details: oral, SC low dose and SC high dose DIM; 6 and 10 days pi; vs RSV-infected, untreated mice; FIG. 7
# Experimental: as §1, §2, §3
# [5] = test system: RSV Long strain; assay: Pulmonary viral assay (pfu in lung homogenate) in RSV infected BALB/c mice; format: in vivo
# Experimental: as §1
# Animals, cells, and viruses. Pathogen-free 8-10 week old female BALB/c mice, weighing between 16 and 20 g, were purchased from Charles River Laboratories. All mice were housed in cages covered with barrier filters and are fed mouse chow and water ad libitum. HeLa cells are maintained in Eagle's minimal essential medium supplemented with glutamine, gentamicin, penicillin G, and 10% fetal bovine serum.
# RSV stock. RSV Long strain was grown on HEp-2 monolayers (American Type Culture Collection, Manassas, Va.). The extracellular media containing liberated progeny virus was collected at about 70 hr. The virus was purified and concentrated by precipitation with polyethylene glycol (MW 8,000) and sucrose gradient centrifugation. The final preparation had infectious titer in the range of 10^8-10^9 pfu/ml and was stored frozen at −80° C. in small portions. All infectious viral titers (plaque forming units [pfu]) were determined by agarose plaque assay on HEp-2 monolayers with neutral red staining using standard procedures. Another suitable strain is the A2 strain of RSV (American Type Culture Collection).
# as §2
# Pulmonary viral assay and clinical measurements. […] Respiratory rates (breaths per min) were determined by counting over a period of 2-3 mins. […]
structure (smiles),measurement,setting,value
"c1ccc2c(Cc3c[nH]c4ccccc34)c[nH]c2c1 [DIM, 3,3′-diindolylmethane]",solubility,[1],low solubility
same,severity in lung pathology,[2],reduced severity in lung pathology
same,evidence of active bRSV infection,[3],less evidence of active bRSV infection
same,leukotrienes in broncho-alveolar lung fluid (BALF),[4],significant reduction in leukotriene levels; also recorded: Reduction in pulmonary leukotriene levels; also recorded: significantly lower levels of lung inflammation associated leukotrienes
same,RSV growth in the lung / viral counts in lung tissue,"[5]; DIM administered orally or parenterally, BALB/c mice",inhibit RSV growth in the lung; also recorded: significant reduction in viral counts in lung tissue
same,pulmonary viral count,"[5]; SC administered DIM, 10 days pi, vs vehicle treated, RSV-infected controls, FIG. 4",significantly reduced pulmonary viral count
same,intrapulmonary replication of nasally administered RSV virus,"[5]; oral 250 mg/kg/day and SC 15 and 150 mg/kg/day, 6 days post infection (pi), vs vehicle treated RSV-infected controls, FIG. 4",significantly reduced the intrapulmonary replication
